From ChEMBL document CHEMBL1944566, “Conjugation of cell-penetrating peptides leads to identification of anti-HIV peptides from matrix proteins” (Bioorg Med Chem, 2012) come the findings set out here.

In data set [1] the test system is Human immunodeficiency virus 1. The data set is described as follows: Antiviral activity against R5 tropic HIV1 JR-CSF in PM1/CCR5 cells assessed as protection from virus-induced cytopathogenicity measuring capsid p24 level at 50 uM after 5 days by ELISA. In kind it is functional. The following applies: Human immunodeficiency virus 1, JRCSF ISOLATE, PM1/CCR5, 120 h. For orientation: Cytopathic effects are the visible damage that an infection or toxin causes in cultured cells.

In data set [2] the test system is Human immunodeficiency virus 1. The data set is described as follows: Antiviral activity against R5 tropic HIV1 NL(AD8) in PM1/CCR5 cells assessed as protection from virus-induced cytopathogenicity at 50 uM after 5 days by MTT assay. The settings on record: Human immunodeficiency virus 1, NL(AD8), PM1/CCR5, 120 h. In kind it is functional.
Data set [3] deals with Human immunodeficiency virus 1. In words: Antiviral activity against X4 tropic HIV1 NL4-3 in MT4 cells assessed as protection from virus-induced cytopathogenicity after 5 days by MTT assay. The settings on record: Human immunodeficiency virus 1, NL4-3, MT4, 120 h. In kind it is functional, organism-based.
Data set [4] is described as follows: Cytotoxicity against human MT4 cells after 5 days by MTT assay. In kind it is cell-based. In general terms: Formazan colour is commonly taken as a measure of viable cells.
Data set [5] relates to Human immunodeficiency virus 1. The data set is described as follows: Antiviral activity against X4 tropic HIV1 NL4-3 in MT4 cells assessed as protection from virus-induced cytopathogenicity at 3.13 uM after 5 days by MTT assay. In kind it is functional, organism-based.
Data set [6] in a line: Aqueous solubility of the compound. In kind it is physicochemical. The settings on record: buffer.
In data set [7] the test system is Human immunodeficiency virus 1. The data set is described as follows: Antiviral activity against R5 tropic HIV1 JR-CSF in PM1/CCR5 cells assessed as protection from virus-induced cytopathogenicity measuring capsid p24 level after 5 days by ELISA. In kind it is functional, cell-based. The settings on record: Human immunodeficiency virus 1, JRCSF ISOLATE, PM1/CCR5, 120 h.

Data set [8] has as its system Human immunodeficiency virus 1. In words: Antiviral activity against R5 tropic HIV1 NL(AD8) in PM1/CCR5 cells assessed as protection from virus-induced cytopathogenicity after 5 days by MTT assay. The settings on record: Human immunodeficiency virus 1, NL(AD8), PM1/CCR5, 120 h. In kind it is functional, organism-based.
Data set [9] has as its system Human immunodeficiency virus 1. In words: Antiviral activity against R5 tropic HIV1 NL(AD8) in PM1/CCR5 cells assessed as protection from virus-induced cytopathogenicity at 6.25 uM after 5 days by MTT assay. In kind it is functional. The following applies: Human immunodeficiency virus 1, NL(AD8), PM1/CCR5, 120 h.
Data set [10] has as its system Human immunodeficiency virus 1. The data set is described as follows: Antiviral activity against R5 tropic HIV1 NL(AD8) in PM1/CCR5 cells assessed as protection from virus-induced cytopathogenicity at 25 uM after 5 days by MTT assay. The following applies: Human immunodeficiency virus 1, NL(AD8), PM1/CCR5, 120 h. In kind it is functional.

The source made the active and inactive calls. No cut-off for these calls is given here. Where a SMILES comes first, the peptide text is derived from it. The star is where a group is joined. Cam = NC(=O)C*

For `CC(=O)N[C@@H](CC(C)C)C(=O)NCC(=O)N[C@@H](CCC(N)=O)C(=O)N[C@@H](CC(C)C)C(=O)N[C@@H](CCC(N)=O)C(=O)N1CCC[C@H]1C(=O)N[C@@H](CO)C(=O)N[C@@H](CC(C)C)C(=O)N[C@@H](CCC(N)=O)C(=O)N[C@H](C(=O)NCC(=O)N[C@@H](CO)C(=O)N[C@@H](CCC(=O)O)C(=O)N[C@@H](CCC(=O)O)C(=O)N[C@@H](CC(C)C)C(=O)NCC(=O)N[C@@H](CSCC(=O)N[C@@H](CCCNC(=N)N)C(=O)N[C@@H](CCCNC(=N)N)C(=O)N[C@@H](CCCNC(=N)N)C(=O)N[C@@H](CCCNC(=N)N)C(=O)N[C@@H](CCCNC(=N)N)C(=O)N[C@@H](CCCNC(=N)N)C(=O)N[C@@H](CCCNC(=N)N)C(=O)N[C@@H](CCCNC(=N)N)C(N)=O)C(N)=O)[C@@H](C)O`, the inhibition (as a rule, the share of the control response that was lost under treatment) at 50 µM turned out to be 35% in data set [1] and 37% in data set [2]. The EC50 (in general, the concentration that produces a half-maximal response) in data set [3] worked out at 35 µM. Also, in data set [4], the CC50 – broadly, the concentration at which the toxic effect on the cells reaches its halfway point – at 120 h was more than 50 µM.

As to `CC[C@H](C)[C@H](NC(=O)[C@H](Cc1cnc[nH]1)NC(=O)[C@H](CCCCN)NC(=O)[C@H](CC(C)C)NC(C)=O)C(=O)N[C@H](C(=O)N[C@@H](Cc1c[nH]c2ccccc12)C(=O)N[C@@H](C)C(=O)N[C@@H](CO)C(=O)N[C@@H](CCCNC(=N)N)C(=O)N[C@@H](CCC(=O)O)C(=O)N[C@@H](CC(C)C)C(=O)N[C@@H](CCC(=O)O)C(=O)N[C@@H](CCCNC(=N)N)C(=O)N[C@@H](Cc1ccccc1)C(=O)N[C@@H](C)C(=O)NCC(=O)N[C@@H](CSCC(=O)N[C@@H](CCCNC(=N)N)C(=O)N[C@@H](CCCNC(=N)N)C(=O)N[C@@H](CCCNC(=N)N)C(=O)N[C@@H](CCCNC(=N)N)C(=O)N[C@@H](CCCNC(=N)N)C(=O)N[C@@H](CCCNC(=N)N)C(=O)N[C@@H](CCCNC(=N)N)C(=O)N[C@@H](CCCNC(=N)N)C(N)=O)C(N)=O)C(C)C`, in data set [4], half-maximal cytotoxicity (CC50 at 120 h) was put at 3.7 µM. Further, in data set [5], the inhibition result was “inactive”.

With `CC[C@H](C)[C@H](NC(=O)[C@@H](NC(=O)[C@H](CC(N)=O)NC(=O)[C@H](Cc1ccc(O)cc1)NC(=O)[C@H](CC(C)C)NC(=O)[C@H](CO)NC(=O)[C@H](CCCNC(=N)N)NC(=O)[C@H](CC(C)C)NC(=O)[C@H](CCC(=O)O)NC(=O)[C@H](CCC(=O)O)NC(=O)[C@H](CO)NC(=O)CNC(C)=O)[C@@H](C)O)C(=O)N[C@@H](C)C(=O)N[C@H](C(=O)N[C@@H](CC(C)C)C(=O)NCC(=O)N[C@@H](CSCC(N)=O)C(N)=O)C(C)C`, the EC50 in data set [3] is more than 50 µM. Also, in data set [6], the solubility entry is “Insoluble”. For the same compound, in [4], the CC50 at 120 h was more than 50 µM.

For the compound `CC[C@H](C)[C@H](NC(=O)[C@H](CCCNC(=N)N)NC(=O)[C@H](CCC(N)=O)NC(=O)[C@H](Cc1cnc[nH]1)NC(=O)[C@@H](NC(=O)[C@H](CO)NC(=O)[C@H](Cc1ccc(O)cc1)NC(=O)[C@H](CC(C)C)NC(=O)[C@@H](NC(=O)[C@H](C)NC(=O)[C@@H](NC(=O)[C@@H](NC(C)=O)[C@@H](C)O)[C@@H](C)CC)C(C)C)C(C)C)C(=O)N[C@@H](CC(=O)O)C(=O)N[C@H](C(=O)N[C@@H](CCCCN)C(=O)NCC(=O)N[C@@H](CSCC(N)=O)C(N)=O)C(C)C` (Ac-TIAVLYSVHQRIDVKGC(Cam)-NH2), the EC50 amounted to 29 µM in data set [3], 8.1 µM in [7] and 13 µM in [8]. Besides, the solubility entry in data set [6] was “Insoluble”. The compound further registered a CC50 at 120 h in data set [4] of more than 50 µM.

With `CC[C@H](C)[C@H](NC(=O)[C@H](CCC(N)=O)NC(=O)[C@H](CCCNC(=N)N)NC(=O)[C@H](CO)NC(=O)CNC(=O)[C@H](CCC(=O)O)NC(=O)[C@H](CO)NC(=O)[C@@H](NC(=O)[C@H](CCC(=O)O)NC(=O)[C@H](CC(C)C)NC(C)=O)[C@@H](C)O)C(=O)N[C@@H](CC(C)C)C(=O)NCC(=O)N[C@@H](CCC(N)=O)C(=O)N[C@@H](CC(C)C)C(=O)N[C@@H](CCC(N)=O)C(=O)NCC(=O)N[C@@H](CSCC(N)=O)C(N)=O` (Ac-LETSEGSRQILGQLQGC(Cam)-NH2), the inhibition at 50 µM in data set [1] turned out to be 25%. For the same compound, in data set [3], the EC50 worked out at 37 µM. For the same compound, the inhibition at 6.25 µM in data set [9] came to 24%. This compound had a CC50 at 120 h in [4] of more than 50 µM.

As to `CC[C@H](C)[C@H](NC(=O)[C@H](CCCCN)NC(=O)[C@H](CC(=O)O)NC(=O)[C@H](CC(C)C)NC(C)=O)C(=O)N[C@@H](CCC(=O)O)C(=O)N[C@@H](CCC(=O)O)C(=O)N[C@@H](CCC(=O)O)C(=O)N[C@@H](CCC(N)=O)C(=O)N[C@@H](CC(N)=O)C(=O)N[C@@H](CCCCN)C(=O)N[C@@H](CO)C(=O)N[C@@H](CCCCN)C(=O)N[C@@H](CCCCN)C(=O)N[C@@H](CCCCN)C(=O)N[C@@H](C)C(=O)NCC(=O)N[C@@H](CSCC(=O)N[C@@H](CCCNC(=N)N)C(=O)N[C@@H](CCCNC(=N)N)C(=O)N[C@@H](CCCNC(=N)N)C(=O)N[C@@H](CCCNC(=N)N)C(=O)N[C@@H](CCCNC(=N)N)C(=O)N[C@@H](CCCNC(=N)N)C(=O)N[C@@H](CCCNC(=N)N)C(=O)N[C@@H](CCCNC(=N)N)C(N)=O)C(N)=O`, the EC50 in data set [3] is 18 µM; in data set [7] it was 23 µM. For the same compound, in [10], the inhibition at 25 µM came out at 17%. In [4], this compound registered a CC50 at 120 h of more than 50 µM.
